Molecular target: T1, HIV-1 protease (Human immunodeficiency virus type 1 group M subtype B, UniProt P04585)
T1 construct: 2.6 nM of HIV-1 protease
Assay: Assay for inhibitory effect on HIV protease (residual enzyme activity, HPLC of substrate cleavage)
Type: biochemical
Settings: for Ki / kinact: HIV-1 protease 2.6 nM; for Ki / kinact / kinact/KI: pH 5.5; for Ki: inhibition constant; for kinact: rate constant of covalent bond formation, read-out: kina (converted); for kinact/KI: second order rate constant, HIV-1 protease, read-out: kina /KI (converted)
Protocol: The inhibitory effect on HIV protease of the compounds of the present invention was determined by the following method.
To a buffer solution comprising 50 mM sodium acetate, pH 5.5, 1 mM dithiothreitol(DTT), 1 mM ethylenediaminetetraacetate (EDTA), 0.75M ammonium sulfate, 0.2M sodium chloride and 0.1% NP40(NONIDET P-40; Sigma Chemical Co., U.S.A.), were added various concentrations of a compound selected from Compound Nos. 1 to 92 to prepare a preincubation solution. Inhibition reaction was started with the addition of 2.6 nM of HIV-1 protease to the preincubation solution. Each 10 μl of the reaction solution was taken at a given time interval and added to 80 μl of assay solution containing 100 μM of reaction substrate in the same buffer solution as above to assay for the residual enzyme activity. In this context, an oligopeptide(KM =20 μM) consisting of 11 amino acids, i.e., Ser-Ile-Ala-Glu-(p-NO2)-Phe-Leu-Val-Arg-Ala-Lys-His, was used as a reaction substrate, which oligopeptide was to be cleaved in two by the breakage of amide bond between (P--NO2)-Phe and Leu upon the attack of HIV protease. The reaction rate was determined by subjecting the substrate before the reaction and the product after the reaction to HPLC separation and then measuring the relative amount of the product, using the strong absorbance of (p--NO2)-Phe at 280 nm. The amount of reduction in enzyme activity according to the elapsed time were measured and the natural logarithmic values(ln) of the measured amounts were plotted against time to obtain a linear graph and kobs was calculated from the slope of the linear graph.
The inhibition constant was calculated according to the following equation: [formula] wherein: kobs is a rate constant indicating the rate of reduction in enzyme activity according to the elapsed time under the presence of a given concentration of inhibitor,
kina is a rate constant indicating the rate of chemical reaction forming covalent bond between an enzyme and an inhibitor in Michaelis-Menten complex,
KI is an inhibition constant indicating the dissociation rate of Michaelis-Menten complex into an enzyme and an inhibitor, and
[I] means the inhibitor concentration.
The above equation is applicable to an experiment carried out under the condition in which the concentration of inhibitor is far higher than that of enzyme(Steady State Kinetic). […] The inhibition constants KI and kina and second order rate constant kina /KI were obtained by inputting the value of [E]/([E]+[EI]+[EI']) into KINSIM/FITSIM program. FIG. 1 exemplifies a result of the experiment determining the binding ratio of enzymes and inhibitors, which result was obtained by reacting the enzyme and the inhibitor in various concentration ratios for a sufficient time period(at least for 30 minutes), and then plotting the relative activity of the remaining enzyme against [conc. of inhibitor]/[conc. of enzyme].

Compound	Ki [µM]	kinact [s⁻¹]	kinact/KI [M⁻¹ s⁻¹]	Km (oligopeptide substrate of 11 amino acids, read-out: KM of reaction substrate) [µM]
CC(C)[C@H](NC(=O)N(C)Cc1ccccc1)C(=O)NC[C@@H]1O[C@@H]1[C@H](Cc1ccccc1)NC(=O)[C@@H](NC(=O)N(C)Cc1ccccc1)C(C)C [compound 81, 4S-1,4-bis[N-[(N'-benzylmethylamino)carbonyl-L-valinyl]amino]-5-phenyl-(2S,3R)-(Z)-epoxypentane]	> 10			
CONC(=O)[C@@H](NC(=O)C[C@@H]1O[C@@H]1[C@H](Cc1ccccc1)NC(=O)[C@H](CC(N)=O)NC(=O)c1ccc2ccccc2n1)C(C)C [compound 34]	0.015	0.00267	183000	
CC(C)[C@H](NC=O)C(=O)NC[C@@H]1O[C@@H]1[C@H](Cc1ccccc1)NC(=O)[C@H](CC(N)=O)NC(=O)c1ccc2ccccc2n1 [compound 88]	0.85	0.0367	43300	
CC[C@H](C)[C@H](NC(=O)C[C@@H]1O[C@@H]1[C@H](Cc1ccccc1)NC(=O)[C@H](CC(N)=O)NC(=O)c1ccc2ccccc2n1)C(=O)N1CCOCC1 [compound 29]	> 10			
NC(=O)C[C@H](NC(=O)COc1ccccc1)C(=O)N[C@@H](Cc1ccccc1)[C@H]1O[C@H]1CCc1ccccc1 [compound 57, 2-L-(N-phenoxyacetyl-L-asparaginyl)amino-(3R,4S)-epoxy-1,6-diphenylhexane]	12.5	0.0015	120	
CC[C@H](C)[C@H](NC(=O)OCc1ccccc1)C(=O)N[C@@H](Cc1ccccc1)[C@H]1O[C@H]1CCc1ccccc1 [compound 54, 2-L-(N-benzyloxycarbonyl-L-isoleucinyl)amino-(3R,4S)-epoxy-1,6-diphenylhexane]	1	0.0075	7500	
CCC(C)[C@H](NC=O)C(=O)NC[C@@H]1O[C@@H]1[C@H](Cc1ccccc1)NC(=O)[C@H](CC(N)=O)NC(=O)c1ccc2ccccc2n1 (some centres unmarked) [compound 90]	0.14	0.00667	48300	
NC(=O)C[C@H](NC(=O)[C@H](Cc1ccccc1)NC(=O)CCN1CCOCC1)C(=O)N[C@@H](Cc1ccccc1)[C@H]1O[C@H]1CCc1ccccc1 [compound 66, 2-L-[N-(N-morpholinepropanecarbonyl-L-phenylalanyl)-L-asparaginyl]amino-(3R,4S)-epoxy-1,6-diphenylhexane]	0.55	0.0128	23300	
CC(C)CC[C@@H]1O[C@@H]1[C@H](Cc1ccccc1)NC(=O)[C@H](CC(N)=O)NC(=O)OCc1ccccc1 [compound 69, 2-L-(N-benzyloxycarbonyl-L-asparagyl)amino-(3R,4S)-epoxy-7-methyl-1-phenyloctane]	0.55	0.001	1830	
C[C@H](NC(=O)OCc1ccccc1)C(=O)N[C@@H](CC(N)=O)C(=O)N[C@@H](Cc1ccccc1)[C@H]1O[C@H]1CCc1ccccc1 [compound 67, 2-L-[N-(N-benzyloxycarbonyl-L-alanyl)-L-asparaginyl]amino-(3R,4S)-epoxy-1,6-diphenylhexane]	0.26	0.00117	4500	
NC(=O)C[C@H](NC(=O)c1ccc2ccccc2n1)C(=O)N[C@@H](Cc1ccccc1)[C@H]1O[C@H]1CNC(=O)[C@@H](NC=O)c1ccccc1 [compound 91]	1.2	0.005	4170	
CC(C)C[C@H](NC(=O)[C@H](CC(N)=O)NC(=O)OCc1ccccc1)[C@H]1O[C@H]1CCc1ccccc1 [compound 56, 5-L-(N-benzyloxycarbonyl-L-asparaginyl)amino-(3S,4R)-epoxy-7-methyl-1-phenyloctane]	44.4	0.00483	108	
CC[C@H](C)[C@H](NC(=O)C[C@@H]1O[C@@H]1[C@H](Cc1ccccc1)NC(=O)[C@@H](NC(=O)OCc1ccccn1)C(C)C)C(=O)OC [compound 38, N-{N-L-[[N-(2-pyridylmethoxycarbonyl)-L-valinyl)-amino]-(4R,3S)-epoxy-6-phenyl-hexanoyl}-L-isoleucine methyl ester]	> 10			
Ser-Ile-Ala-Glu-(p-NO2)-Phe-Leu-Val-Arg-Ala-Lys-His [reference compound]				20
CC(C)[C@H](NC(=O)OCc1ccncc1)C(=O)NC[C@@H]1O[C@@H]1[C@H](Cc1ccccc1)NC(=O)[C@@H](NC(=O)OCc1ccncc1)C(C)C [compound 79]	3	0.00167	550	
NC(=O)CC[C@H](NC(=O)OCc1ccccc1)C(=O)N[C@@H](Cc1ccccc1)[C@H]1O[C@H]1CCc1ccccc1 [compound 55, 2-L-(N-benzyloxycarbonyl-L-glutaminyl)amino-(3R,4S)-epoxy-1,6-diphenylhexane]	2.2	0.00367	1670	
CNC(=O)[C@@H](NC(=O)C[C@@H]1O[C@@H]1[C@H](Cc1ccccc1)NC(=O)[C@H](CC(N)=O)NC(=O)c1ccc2ccccc2n1)C(C)C [compound 30]	0.022	0.00333	183000	
COC(=O)C(NC(=O)C(CCC(N)=O)NC(=O)C[C@@H]1O[C@@H]1[C@H](Cc1ccccc1)NC(=O)[C@H](CC(N)=O)NC(=O)COc1cccc2ccccc12)C(C)C (some centres unmarked) [compound 16]	0.42	0.0025	6000	
CC[C@H](C)[C@H](NC(=O)C[C@@H]1O[C@@H]1[C@H](CC1CCCCC1)NC(=O)[C@H](CC(N)=O)NC(=O)c1ccc2ccccc2n1)C(=O)OC [compound 5]	0.092	0.00333	36700	
CC[C@H](C)[C@H](NC(=O)C[C@@H]1O[C@@H]1[C@H](Cc1ccccc1)NC(=O)[C@H](CC(N)=O)NC(=O)COc1ccccc1)C(=O)OC [compound 4]	0.06	0.0015	25000	
CC(C)(C)OC(=O)N[C@@H](Cc1ccccc1)[C@H]1O[C@H]1CCc1ccccc1 [compound 51, 2-L-(t-butoxycarbonyl)amino-(3R,4S)-epoxy-1,6-diphenylhexane]	7	0.000833	118	
NC(=O)C[C@H](NC(=O)[C@H](Cc1ccccc1)NC(=O)OCc1ccccc1)C(=O)N[C@@H](Cc1ccccc1)[C@H]1O[C@H]1CCc1ccccc1 [compound 68, 2-L-[N-(N-benzyloxycarbonyl-L-phenylalanyl)-L-asparaginyl]amino-(3R,4S)-epoxy-1,6-diphenylhexane]	4	0.000667	167	
NC(=O)C[C@H](NC(=O)c1ccc2ccccc2n1)C(=O)N[C@@H](Cc1ccccc1)[C@H]1O[C@H]1CNC(=O)[C@H](Cc1ccccc1)NC=O [compound 92]	1.4	0.00333	2330	
NC(=O)C[C@H](NC(=O)c1ccc2ccccc2[n+]1[O-])C(=O)N[C@@H](Cc1ccccc1)[C@H]1O[C@H]1CCc1ccccc1 [compound 64, 2-L-[N-(N-oxy)quinoline-2-yl-carbonyl-L-asparaginyl]amino-(3R,4S)-epoxy-1,6-diphenylhexane]	3.6	0.0015	417	
O=C(O)CC[C@H](NC(=O)OCc1ccccc1)C(=O)NC[C@@H]1O[C@@H]1[C@H](Cc1ccccc1)NC(=O)[C@H](CCC(=O)O)NC(=O)OCc1ccccc1 [compound 74, 4S-1,4-bis[N-(N'-benzyloxycarbonyl-L-glutamic acidyl)amino]-5-phenyl-(2S,3R)-(Z)-epoxypentane]	> 10			

— patent US5744621A, “Irreversible HIV protease inhibitors, intermediates, compositions and processes for the preparation thereof” (Lucky Limited., priority 1992, dated 1998)
